≈ marks a conversion by molar mass, not a printed value.
What was measured:
Type in all cases: physicochemical
[1] = Solubility of Amlexanox in solvents and at different pH
Experimental: To illustrate the many aspects of the present invention, it is provided herein several Examples of formulations which comprise a specific not-very-soluble drug known as Amlexanox or 2-amino-7-(1-methylethyl)-5-oxo-5H-[1]benzopyrano-[2,3-b]-pyridine-3-carboxylic acid. Amlexanox is not very soluble in lower alkyl alcohols (0.58 mg/mL, in dehydrated ethanol) or water (0.005 mg/mL). However, solubility of Amlexanox increases with pH. […] Thus, at any given time, Amlexanox may be present in the formulation as a solution or suspension or both.

[2] = Solubility of Amlexanox in 95% ethanol with imidazole (visual observation); settings: 200 mM imidazole vs no imidazole
Experimental: Amlexanox (4.8 mg to 20.5 mg) was added to seven glass scintillation vials. 95% Ethanol (in 5-100 uL aliquots) with various concentrations of imidazole (0-200 mM) was added to the vials containing Amlexanox. The total volume of 95% ethanol added to result in Amlexanox solubilization (by visual observation) was recorded.

[3] = Solubility of Propellant 152a in aqueous and ethanol/water solvents, with or without ethyl cellulose
Experimental: In one aspect, the propellant is 1,1-difluoroethane also known as Propellant 152a, commercially available under the trade mark Dymel®. Propellant 152a is slightly soluble in aqueous solvents (solubility of less than 1% by weight).
The inventors have experimented with ethanol as a cosolvent to be used in conjunction with Propellant 152a. When water is added to the ethanol/Propellant 152a mixture, the solubility of Propellant 152a decreases. […] This unexpected increase in solubility was not observed when hydroxyethyl cellulose or hydroxypropyl cellulose was used instead of ethyl cellulose.

Row | solubility of Propellant 152a ([3]; aqueous solvents) | solubility of Propellant 152a ([3]; ethyl cellulose about 0.7% to about 1.4%, ethanol/water (80:20)) | solubility of Propellant 152a ([3]; ethyl cellulose about 0.75% to about 10% added to ethanol or ethanol/water mixtures) [%] | solubility of Propellant 152a ([3]; mixture of ethanol/water (80:20), no ethyl cellulose) | Structure (SMILES) | solubility ([1]; aqueous buffer, pH 3.0) [µg/mL] | solubility ([1]; in water) [µg/mL] | solubility ([1]; organic solvent or mixture, in dehydrated ethanol) [µg/mL] | solubility ([1]; pH 5.96, aqueous buffer) [µg/mL] | solubility in 95% ethanol with 200 mM imidazole relative to absence of imidazole [2]
1 | – | – | – | – | CC(C)c1ccc2oc3nc(N)c(C(=O)O)cc3c(=O)c2c1 [Amlexanox, 2-amino-7-(1-methylethyl)-5-oxo-5H-[1]benzopyrano-[2,3-b]-pyridine-3-carboxylic acid] | 12 (≈ 40.2 µM) | 5 (≈ 16.8 µM) | 580 (≈ 1940 µM) | 15300 (≈ 51300 µM) | approximately 7.5 fold
2 | less than 1 % by weight | 62-64% | 62 to 64 | about 49% | CC(F)F [Propellant 152a, 1,1-difluoroethane] | – | – | – | – | –
